According to US9598414B2, “Substituted benzo[5,6]azepino[3,2,1-hi]pyrido[4,3-b]indoles and substituted benzo[6,7][1,4]oxazepino[2,3,4-hi]pyrido[4,3-b]indoles for treating CNS disorders” (Daya Drug Discoveries, Inc., priority 2013, dated 2017):
Where two headings read alike, the source gives them in different places.

How the values were obtained:
α-Adrenergic α1B = α-Adrenergic α1B (Homo sapiens, UniProt P35368); assay: Receptor binding, α1B
α-Adrenergic α1D = α-Adrenergic α1D (Homo sapiens, UniProt P25100); assay: Receptor binding, α1D
Serotonin 5-HT7 = Serotonin 5-HT7 (Homo sapiens, UniProt P34969); assay: Receptor binding, 5-HT7; details: for Ki: 5-HT7
Serotonin 5-HT1D = Serotonin 5-HT1D (Homo sapiens, UniProt P28221); assay: Receptor binding, 5-HT1D
Serotonin 5-HT1E = Serotonin 5-HT1E (Homo sapiens, UniProt P28566); assay: Receptor binding, 5-HT1E
Serotonin 5-HT1B = Serotonin 5-HT1B (Homo sapiens, UniProt P28222); assay: Receptor binding, 5-HT1B
Dopamine D2 = Dopamine D2 (Homo sapiens, UniProt P14416); assay: Receptor binding, D2
Histamine H1 = Histamine H1 (Homo sapiens, UniProt P35367); assay: Receptor binding, H1; details: for Ki: H1
Muscarinic M1 = Muscarinic M1 (Homo sapiens, UniProt P11229); assay: Receptor binding, M1
α-Adrenergic α2A = biological target: T1, α-Adrenergic α2A (Homo sapiens, UniProt P08913); assay: Receptor binding, α2A
T1 sequence (P08913 1-465): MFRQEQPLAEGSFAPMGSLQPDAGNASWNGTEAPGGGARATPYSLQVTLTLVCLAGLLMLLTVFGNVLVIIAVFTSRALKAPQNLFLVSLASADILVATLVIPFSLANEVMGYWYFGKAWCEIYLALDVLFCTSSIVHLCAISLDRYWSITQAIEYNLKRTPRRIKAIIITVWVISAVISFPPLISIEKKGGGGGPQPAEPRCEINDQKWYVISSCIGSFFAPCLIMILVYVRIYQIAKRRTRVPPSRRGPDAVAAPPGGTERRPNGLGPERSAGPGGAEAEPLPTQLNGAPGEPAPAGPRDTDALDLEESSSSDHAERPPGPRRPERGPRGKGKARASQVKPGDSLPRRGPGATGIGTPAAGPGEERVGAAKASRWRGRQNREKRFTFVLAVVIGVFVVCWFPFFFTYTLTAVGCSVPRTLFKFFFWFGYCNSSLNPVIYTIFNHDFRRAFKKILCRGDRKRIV

Opioid κ = Opioid κ (Homo sapiens, UniProt P41145); assay: Receptor binding, opioid κ
Serotonin 5-HT1A = biological target: T2, Serotonin 5-HT1A (Homo sapiens, UniProt P08908); assay: Receptor binding, 5-HT1A
T2 sequence (P08908 1-422): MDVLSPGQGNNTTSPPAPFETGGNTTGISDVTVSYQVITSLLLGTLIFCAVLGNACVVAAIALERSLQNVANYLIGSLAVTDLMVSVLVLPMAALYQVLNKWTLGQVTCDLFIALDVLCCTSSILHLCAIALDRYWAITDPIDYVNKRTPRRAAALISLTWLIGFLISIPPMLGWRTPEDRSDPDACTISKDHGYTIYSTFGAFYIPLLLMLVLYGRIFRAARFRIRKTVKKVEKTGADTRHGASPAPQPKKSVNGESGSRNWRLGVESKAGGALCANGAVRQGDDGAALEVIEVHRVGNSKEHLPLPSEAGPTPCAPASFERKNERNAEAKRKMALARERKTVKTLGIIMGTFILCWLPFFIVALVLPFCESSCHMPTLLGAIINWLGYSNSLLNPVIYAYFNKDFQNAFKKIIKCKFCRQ

Serotonin 5-HT6 = Serotonin 5-HT6 (Homo sapiens, UniProt P50406); assay: Receptor binding, 5-HT6; details: for Ki: 5-HT6
Histamine H2 = Histamine H2 (Homo sapiens, UniProt P25021); assay: Receptor binding, H2
Sigma σ2 = Sigma σ2 (Homo sapiens, UniProt Q5BJF2); assay: Receptor binding, σ2; details: σ2
α-Adrenergic α2B = biological target: T3, α-Adrenergic α2B (Homo sapiens, UniProt P18089); assay: Receptor binding, α2B
T3 sequence (P18089 1-450): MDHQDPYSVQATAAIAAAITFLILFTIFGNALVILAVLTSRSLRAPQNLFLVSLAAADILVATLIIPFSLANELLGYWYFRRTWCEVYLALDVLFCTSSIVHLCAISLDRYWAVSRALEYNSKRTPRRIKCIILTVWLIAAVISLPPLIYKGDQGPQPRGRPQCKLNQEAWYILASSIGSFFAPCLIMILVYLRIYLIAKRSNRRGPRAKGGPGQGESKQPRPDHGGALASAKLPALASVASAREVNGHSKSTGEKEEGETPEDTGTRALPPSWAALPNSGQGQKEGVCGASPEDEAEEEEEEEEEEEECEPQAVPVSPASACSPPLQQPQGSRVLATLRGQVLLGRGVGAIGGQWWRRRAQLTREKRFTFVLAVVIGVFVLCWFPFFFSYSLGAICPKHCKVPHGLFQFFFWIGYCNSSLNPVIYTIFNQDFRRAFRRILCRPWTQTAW

Serotonin 5-HT2A = Serotonin 5-HT2A (Homo sapiens, UniProt P28223); assay: Receptor binding, 5-HT2A
α-Adrenergic α1A = α-Adrenergic α1A (Homo sapiens, UniProt P35348); assay: Receptor binding, α1A
Dopamine D5 = Dopamine D5 (Homo sapiens, UniProt P21918); assay: Receptor binding, D5
Serotonin 5-HT5A = Serotonin 5-HT5A (Homo sapiens, UniProt P47898); assay: Receptor binding, 5-HT5A
Muscarinic M3 = Muscarinic M3 (Homo sapiens, UniProt P20309); assay: Receptor binding, M3
α-Adrenergic α2C = biological target: T4, α-Adrenergic α2C (Homo sapiens, UniProt P18825); assay: Receptor binding, α2C
T4 sequence (P18825 1-462): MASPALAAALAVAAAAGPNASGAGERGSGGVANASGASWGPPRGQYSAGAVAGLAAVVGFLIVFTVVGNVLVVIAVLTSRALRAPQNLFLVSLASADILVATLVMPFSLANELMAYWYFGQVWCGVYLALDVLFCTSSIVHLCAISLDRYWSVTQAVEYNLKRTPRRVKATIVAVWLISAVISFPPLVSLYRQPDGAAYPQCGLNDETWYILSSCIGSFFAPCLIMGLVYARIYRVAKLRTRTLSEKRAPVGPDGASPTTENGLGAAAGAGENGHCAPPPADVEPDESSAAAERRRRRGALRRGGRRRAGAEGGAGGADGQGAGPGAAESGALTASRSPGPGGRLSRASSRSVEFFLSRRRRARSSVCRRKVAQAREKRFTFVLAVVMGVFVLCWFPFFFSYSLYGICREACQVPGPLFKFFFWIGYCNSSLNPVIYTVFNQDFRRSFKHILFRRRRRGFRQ

Serotonin 5-HT2B = Serotonin 5-HT2B (Homo sapiens, UniProt P41595); assay: Receptor binding, 5-HT2B
Muscarinic M5 = Muscarinic M5 (Homo sapiens, UniProt P08912); assay: Receptor binding, M5
Serotonin 5-HT2C = biological target: T5, Serotonin 5-HT2C (Homo sapiens, UniProt P28335); assay: Receptor binding, 5-HT2C; details: 5-HT2C
T5 sequence (P28335 33-458): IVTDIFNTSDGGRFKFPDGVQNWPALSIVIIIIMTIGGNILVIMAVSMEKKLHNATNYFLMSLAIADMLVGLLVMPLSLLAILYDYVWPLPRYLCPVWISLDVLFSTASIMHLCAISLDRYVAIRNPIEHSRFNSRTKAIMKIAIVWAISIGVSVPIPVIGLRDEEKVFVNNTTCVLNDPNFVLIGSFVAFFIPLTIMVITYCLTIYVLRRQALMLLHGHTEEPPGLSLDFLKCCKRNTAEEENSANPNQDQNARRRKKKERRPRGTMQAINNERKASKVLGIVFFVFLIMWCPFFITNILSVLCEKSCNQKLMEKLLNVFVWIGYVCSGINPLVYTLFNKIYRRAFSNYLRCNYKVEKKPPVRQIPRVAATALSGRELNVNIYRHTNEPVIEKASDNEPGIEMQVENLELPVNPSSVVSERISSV

Serotonin transporter = Serotonin transporter (Homo sapiens, UniProt P31645); assay: Receptor binding, serotonin transporter
dopamine receptors = assay: Receptor binding, dopamine receptors; details: any of the dopamine receptors, summary of Table 1
[1] = biological target: Norepinephrine transporter (Homo sapiens, UniProt P23975); assay: Receptor binding, norepinephrine transporter; details: Transporters: Norepinephrine
Dopamine D3 = Dopamine D3 (Homo sapiens, UniProt P35462); assay: Receptor binding, D3

Chain of Serotonin 5-HT6 (P50406 whole entry): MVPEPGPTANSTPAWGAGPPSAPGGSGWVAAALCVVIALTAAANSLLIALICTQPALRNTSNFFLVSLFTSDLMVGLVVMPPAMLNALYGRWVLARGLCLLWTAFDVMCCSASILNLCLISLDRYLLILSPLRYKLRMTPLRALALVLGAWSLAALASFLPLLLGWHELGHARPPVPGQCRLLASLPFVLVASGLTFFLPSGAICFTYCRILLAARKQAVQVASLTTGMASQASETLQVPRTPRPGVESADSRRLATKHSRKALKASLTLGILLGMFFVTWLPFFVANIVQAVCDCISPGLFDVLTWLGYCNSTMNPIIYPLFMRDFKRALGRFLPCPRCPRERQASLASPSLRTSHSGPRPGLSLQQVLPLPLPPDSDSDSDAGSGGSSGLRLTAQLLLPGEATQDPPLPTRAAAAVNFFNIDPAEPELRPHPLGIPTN
Chain of Serotonin 5-HT2B (P41595 whole entry): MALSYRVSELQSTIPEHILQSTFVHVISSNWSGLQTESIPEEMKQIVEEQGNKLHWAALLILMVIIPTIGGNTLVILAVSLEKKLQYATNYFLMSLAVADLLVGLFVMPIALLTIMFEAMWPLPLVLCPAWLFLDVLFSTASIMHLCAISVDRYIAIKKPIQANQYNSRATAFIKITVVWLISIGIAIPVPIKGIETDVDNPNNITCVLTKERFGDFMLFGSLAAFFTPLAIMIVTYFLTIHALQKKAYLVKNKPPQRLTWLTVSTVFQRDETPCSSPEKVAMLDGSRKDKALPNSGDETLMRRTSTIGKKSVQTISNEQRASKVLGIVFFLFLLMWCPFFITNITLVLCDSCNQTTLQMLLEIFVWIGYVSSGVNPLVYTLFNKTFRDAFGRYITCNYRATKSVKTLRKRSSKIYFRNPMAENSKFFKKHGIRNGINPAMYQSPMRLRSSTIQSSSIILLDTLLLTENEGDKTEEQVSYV
Chain of Serotonin 5-HT1D (P28221 whole entry): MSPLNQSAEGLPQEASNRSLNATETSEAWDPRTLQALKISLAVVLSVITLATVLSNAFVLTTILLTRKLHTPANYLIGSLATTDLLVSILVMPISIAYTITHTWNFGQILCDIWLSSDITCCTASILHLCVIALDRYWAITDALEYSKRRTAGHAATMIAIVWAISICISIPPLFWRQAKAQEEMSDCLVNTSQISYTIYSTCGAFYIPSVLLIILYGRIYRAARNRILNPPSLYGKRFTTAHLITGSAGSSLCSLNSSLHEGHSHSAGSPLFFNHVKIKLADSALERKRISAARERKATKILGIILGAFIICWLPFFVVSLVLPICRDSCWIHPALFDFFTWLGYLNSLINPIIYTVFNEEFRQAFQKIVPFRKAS
Chain of Serotonin 5-HT7 (P34969 whole entry): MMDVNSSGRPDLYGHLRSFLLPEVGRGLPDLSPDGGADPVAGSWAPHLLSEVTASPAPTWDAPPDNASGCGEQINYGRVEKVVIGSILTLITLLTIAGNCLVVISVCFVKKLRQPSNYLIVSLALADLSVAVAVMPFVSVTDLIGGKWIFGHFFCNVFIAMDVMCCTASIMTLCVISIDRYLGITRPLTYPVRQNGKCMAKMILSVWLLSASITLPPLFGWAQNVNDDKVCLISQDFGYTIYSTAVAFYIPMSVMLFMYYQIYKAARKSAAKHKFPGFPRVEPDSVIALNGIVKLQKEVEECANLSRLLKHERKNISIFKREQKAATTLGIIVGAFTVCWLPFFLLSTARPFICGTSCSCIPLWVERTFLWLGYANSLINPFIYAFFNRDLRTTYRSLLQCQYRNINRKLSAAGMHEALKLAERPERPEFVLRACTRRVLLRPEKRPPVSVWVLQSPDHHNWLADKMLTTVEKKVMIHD
Chain of Histamine H1 (P35367 whole entry): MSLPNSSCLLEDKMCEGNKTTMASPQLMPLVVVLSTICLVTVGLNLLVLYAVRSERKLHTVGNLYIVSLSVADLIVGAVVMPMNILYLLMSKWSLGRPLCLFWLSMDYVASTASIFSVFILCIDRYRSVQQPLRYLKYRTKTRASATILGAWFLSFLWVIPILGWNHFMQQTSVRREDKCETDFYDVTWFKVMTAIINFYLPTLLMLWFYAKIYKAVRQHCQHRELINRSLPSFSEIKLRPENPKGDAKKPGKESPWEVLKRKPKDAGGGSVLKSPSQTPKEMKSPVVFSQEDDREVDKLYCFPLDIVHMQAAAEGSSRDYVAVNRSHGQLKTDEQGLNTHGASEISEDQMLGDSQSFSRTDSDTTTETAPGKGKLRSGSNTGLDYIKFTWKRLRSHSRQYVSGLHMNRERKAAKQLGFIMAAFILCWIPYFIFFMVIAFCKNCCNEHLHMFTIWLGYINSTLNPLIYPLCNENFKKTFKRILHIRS
Chain of Serotonin 5-HT1B (P28222 whole entry): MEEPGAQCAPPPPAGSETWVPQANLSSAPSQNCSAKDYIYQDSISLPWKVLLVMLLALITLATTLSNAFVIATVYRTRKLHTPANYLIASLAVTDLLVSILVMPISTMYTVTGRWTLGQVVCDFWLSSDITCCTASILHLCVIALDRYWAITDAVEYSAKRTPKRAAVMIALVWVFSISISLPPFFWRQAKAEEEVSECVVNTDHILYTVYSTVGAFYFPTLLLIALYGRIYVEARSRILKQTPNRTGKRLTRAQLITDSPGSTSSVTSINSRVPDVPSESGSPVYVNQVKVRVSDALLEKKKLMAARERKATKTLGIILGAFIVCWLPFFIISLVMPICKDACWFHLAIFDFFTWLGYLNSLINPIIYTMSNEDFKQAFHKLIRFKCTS
Chain of Sigma σ2 (Q5BJF2 whole entry): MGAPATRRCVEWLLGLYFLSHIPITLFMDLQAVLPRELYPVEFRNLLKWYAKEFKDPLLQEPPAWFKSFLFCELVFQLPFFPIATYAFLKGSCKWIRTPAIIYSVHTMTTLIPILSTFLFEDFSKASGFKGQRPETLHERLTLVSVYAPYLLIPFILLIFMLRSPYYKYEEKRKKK
Chain of Serotonin 5-HT2A (P28223 whole entry): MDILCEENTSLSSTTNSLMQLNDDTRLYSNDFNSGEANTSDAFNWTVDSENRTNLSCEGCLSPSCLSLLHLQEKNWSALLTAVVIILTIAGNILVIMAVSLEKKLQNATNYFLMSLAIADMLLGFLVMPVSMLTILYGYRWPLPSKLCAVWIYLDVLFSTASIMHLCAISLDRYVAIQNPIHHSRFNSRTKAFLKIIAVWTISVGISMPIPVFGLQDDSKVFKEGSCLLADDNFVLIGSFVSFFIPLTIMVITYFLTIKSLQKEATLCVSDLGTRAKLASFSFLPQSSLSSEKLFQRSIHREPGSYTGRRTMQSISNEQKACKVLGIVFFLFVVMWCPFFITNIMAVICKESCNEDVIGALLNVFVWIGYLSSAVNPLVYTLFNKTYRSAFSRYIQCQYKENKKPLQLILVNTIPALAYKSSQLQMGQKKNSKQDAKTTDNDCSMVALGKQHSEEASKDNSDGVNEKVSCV
Chain of Serotonin transporter (P31645 whole entry): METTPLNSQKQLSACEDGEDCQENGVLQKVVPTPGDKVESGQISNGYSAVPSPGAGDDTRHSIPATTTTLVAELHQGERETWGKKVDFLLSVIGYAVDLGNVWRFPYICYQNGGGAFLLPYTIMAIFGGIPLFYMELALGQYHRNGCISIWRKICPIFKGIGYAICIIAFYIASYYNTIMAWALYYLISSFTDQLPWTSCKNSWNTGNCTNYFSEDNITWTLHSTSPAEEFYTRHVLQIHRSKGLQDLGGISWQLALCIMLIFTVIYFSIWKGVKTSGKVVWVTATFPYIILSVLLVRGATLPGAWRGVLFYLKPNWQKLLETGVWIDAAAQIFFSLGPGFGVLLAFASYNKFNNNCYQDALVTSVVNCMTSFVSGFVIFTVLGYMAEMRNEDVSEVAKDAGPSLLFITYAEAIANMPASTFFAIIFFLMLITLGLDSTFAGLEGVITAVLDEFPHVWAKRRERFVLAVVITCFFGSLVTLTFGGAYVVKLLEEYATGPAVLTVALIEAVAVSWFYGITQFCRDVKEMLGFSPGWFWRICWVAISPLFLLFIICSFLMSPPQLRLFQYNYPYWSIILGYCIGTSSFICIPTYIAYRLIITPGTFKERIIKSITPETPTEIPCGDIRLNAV
Chain of α-Adrenergic α1D (P25100 whole entry): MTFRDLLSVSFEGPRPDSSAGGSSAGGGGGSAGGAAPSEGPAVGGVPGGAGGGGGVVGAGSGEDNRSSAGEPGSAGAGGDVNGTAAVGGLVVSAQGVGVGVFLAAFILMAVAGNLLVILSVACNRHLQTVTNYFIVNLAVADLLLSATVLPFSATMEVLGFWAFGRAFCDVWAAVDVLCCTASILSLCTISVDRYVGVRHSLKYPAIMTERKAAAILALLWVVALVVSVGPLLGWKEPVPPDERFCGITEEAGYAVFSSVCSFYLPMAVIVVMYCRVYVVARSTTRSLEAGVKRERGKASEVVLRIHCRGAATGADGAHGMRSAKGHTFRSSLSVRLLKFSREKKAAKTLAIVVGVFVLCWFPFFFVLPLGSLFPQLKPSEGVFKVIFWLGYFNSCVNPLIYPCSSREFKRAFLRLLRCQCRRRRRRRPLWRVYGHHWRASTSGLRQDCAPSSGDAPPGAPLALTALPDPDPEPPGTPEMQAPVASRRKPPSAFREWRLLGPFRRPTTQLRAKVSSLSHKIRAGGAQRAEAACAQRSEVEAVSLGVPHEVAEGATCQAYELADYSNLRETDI
Chain of α-Adrenergic α1A (P35348 whole entry): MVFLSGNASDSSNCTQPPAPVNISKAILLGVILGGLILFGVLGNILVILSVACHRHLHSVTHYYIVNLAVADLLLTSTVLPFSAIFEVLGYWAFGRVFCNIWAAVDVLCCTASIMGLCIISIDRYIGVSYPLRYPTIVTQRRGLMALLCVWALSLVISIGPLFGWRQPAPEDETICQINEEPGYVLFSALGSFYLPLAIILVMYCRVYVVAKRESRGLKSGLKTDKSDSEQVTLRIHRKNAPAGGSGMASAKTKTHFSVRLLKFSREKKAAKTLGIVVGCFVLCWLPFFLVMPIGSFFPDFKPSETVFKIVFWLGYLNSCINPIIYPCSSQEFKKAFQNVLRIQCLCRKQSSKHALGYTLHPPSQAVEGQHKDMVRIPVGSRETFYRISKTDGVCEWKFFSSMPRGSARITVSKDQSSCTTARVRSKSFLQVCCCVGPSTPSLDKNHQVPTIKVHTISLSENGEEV

Structure (SMILES): CN1CCc2c(c3cccc4c3n2-c2ccccc2CC4)C1 [Compound 6a, reference compound]
- Ki (α-Adrenergic α1B): 3.31 µM
- Ki (α-Adrenergic α1D): 0.595 µM
- Ki (Serotonin 5-HT7): 0.1 µM
- Ki (Serotonin 5-HT1D): 0.085 µM
- Ki (Serotonin 5-HT1E): 4.04 µM
- Ki (Serotonin 5-HT1B): 1.36 µM
- Ki (Dopamine D2): 0.835 µM
- Ki (Histamine H1): 0.05 µM
- Ki (Muscarinic M1): 4.46 µM
- Ki (α-Adrenergic α2A): 0.228 µM
- Ki (Opioid κ): 2.18 µM
- Ki (Serotonin 5-HT1A): 0.596 µM
- Ki (Serotonin 5-HT6): 0.155 µM
- Ki (Histamine H2): 0.081 µM
- Ki (Sigma σ2): 2.23 µM
- Ki (α-Adrenergic α2B): 0.413 µM
- Ki (Serotonin 5-HT2A): 0.024 µM
- Ki (α-Adrenergic α1A): 2.37 µM
- Ki (Dopamine D5): 0.581 µM
- Ki (Serotonin 5-HT5A): 0.75 µM
- Ki (Muscarinic M3): 3.76 µM
- Ki (α-Adrenergic α2C): 0.173 µM
- Ki (Serotonin 5-HT2B): 0.087 µM
- Ki (Muscarinic M5): 5.17 µM
- Ki (Serotonin 5-HT2C): 0.01 µM
- Ki (Serotonin transporter; Transporters: Serotonin): 2.19 µM

Structure (SMILES): CN1CCc2c(c3cccc4c3n2Cc2ccccc2C4)C1 [Compound 13a]
- binding, in words (dopamine receptors): neither of the two compounds 13a and 13b binds significantly
- Ki [1]: > 10 µM
- Ki (Serotonin 5-HT7): 0.212 µM
- binding, in words (Serotonin 5-HT7; 5-HT7, text summary of Table 1): moderate binding
- Ki (Serotonin 5-HT1D): 0.029 µM
- binding, in words (Serotonin 5-HT1D; summary of Table 1): strong binding
- Ki (Serotonin 5-HT1B): 0.715 µM
- Ki (Histamine H1): 0.048 µM
- binding, in words (Histamine H1; H1, text summary of Table 1): strong binding
- Ki (α-Adrenergic α2A): 1.8 µM
- Ki (Serotonin 5-HT1A): 0.375 µM
- binding, in words (Serotonin 5-HT1A; summary of Table 1): moderate binding
- Ki (Serotonin 5-HT6): 0.273 µM
- binding, in words (Serotonin 5-HT6; 5-HT6, text summary of Table 1): moderate binding
- Ki (Sigma σ2): 0.52 µM
- Ki (α-Adrenergic α2B): 2.19 µM
- Ki (Serotonin 5-HT2A): 0.736 µM
- Ki (α-Adrenergic α2C): 0.77 µM
- Ki (Serotonin 5-HT2B): 0.057 µM
- binding, in words (Serotonin 5-HT2B; summary of Table 1): strong binding
- Ki (Dopamine D3): 1.5 µM
- Ki (Serotonin transporter): 2.19 µM
